Reference: US20170122958A1, “Enzymes Functional Probes” (University of Dundee, priority 2013, published 2017)

Tests used:
Experiment in all cases: DSF thermal shift
Type in all cases: binding
[1] = target: T1, Brd2(1) (Homo sapiens, UniProt P25440); conditions: wild type
T1 construct: Plasmids of the eight single BET bromodomain constructs Brd2(1), Brd2(2), Brd3(1), Brd3(2); His6 (N); made in house; host or cells: E. coli BL21(DE3)
Procedure: (§1) DSF assays were performed on a LightCycler®480 from Roche or a Mx3005P Real Time PCR machine from Stratagene. […] SYPRO®Orange from Invitrogen Molecular Probes® was used as a reporter dye to monitor the denaturing process of the proteins. Samples were assayed on a 96-well plate with final protein concentrations of 2 μM for the LightCycler®480 and 6 μM for Mx3005P. Compounds were added at a final concentration of 10 μM for the LightCycler®480 and 30 μM for Mx3005P, while the tetra acetylated histone peptide was added to a final concentration of 100 μM and 300 μM respectively. […] The temperature was raised with a step of 0.6° C. per minute from 37° C. to 95° C. with the LightCycler®480 collecting 39 measurements per ° C., and 1° C. per minute from 25° C. to 95° C. with Mx3005P, collecting fluorescence readings at the end of each interval. Each sample was run in triplicates.
(§2) Collected data was analysed by IGOR Pro 6, a scientific software tool from Wave Metrics, Inc. Analysis was done following the recommendations of Niesen et al.. Fluorescence intensity was plotted as a function of temperature, generating a sigmoidal curve described by a two-state transition from folded to unfolded protein. Curves were fitted by the following sigmoidal equation: […]
(§3) A1 and A2 are the values of minimum and maximum intensities, respectively, x0 is the inflection point and dx is the rate. Fitted curves were differentiated in IGOR Pro 6 and the maximum of the first derivative was identified using the same program. These values correspond to the inflection points of the transition curves and thus to the melting temperatures of the proteins (Tm).

[2] = target: T2, Brd2(1)*(Trp097His) (Homo sapiens, UniProt P25440, W97H); conditions: mutant
T2 construct: Plasmids of the eight single BET bromodomain constructs Brd2(1), Brd2(2), Brd3(1), Brd3(2); His6 (N); made in house; host or cells: E. coli BL21(DE3)
T2 sequence (P25440 74-180 W97H limits assumed): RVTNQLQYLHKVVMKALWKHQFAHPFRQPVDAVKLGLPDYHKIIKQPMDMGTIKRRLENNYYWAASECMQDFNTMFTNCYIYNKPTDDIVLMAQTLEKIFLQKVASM
Procedure: as §1, §2, §3

[3] = target: T3, Brd2(1)*(Trp097Phe) (Homo sapiens, UniProt P25440, W97F); conditions: mutant
T3 construct: Plasmids of the eight single BET bromodomain constructs Brd2(1), Brd2(2), Brd3(1), Brd3(2); His6 (N); made in house; host or cells: E. coli BL21(DE3)
T3 sequence (P25440 74-180 W97F limits assumed): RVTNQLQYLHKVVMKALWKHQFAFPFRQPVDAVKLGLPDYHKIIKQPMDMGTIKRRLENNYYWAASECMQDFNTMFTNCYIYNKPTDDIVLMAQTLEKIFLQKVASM
Procedure: as §1, §2, §3

[4] = target: T4, Brd2(2) (Homo sapiens, UniProt P25440); conditions: wild type
T4 construct: Plasmids of the eight single BET bromodomain constructs Brd2(1), Brd2(2), Brd3(1), Brd3(2); His6 (N); made in house; host or cells: E. coli BL21(DE3)
T4 sequence (P25440 344-453 limits assumed): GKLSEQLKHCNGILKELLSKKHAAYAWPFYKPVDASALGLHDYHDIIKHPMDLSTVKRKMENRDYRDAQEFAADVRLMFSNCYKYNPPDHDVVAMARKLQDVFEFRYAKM
Procedure: as §1, §2, §3

[5] = target: T5, Brd2(2)*(Trp370His) (Homo sapiens, UniProt P25440, W370H); conditions: mutant
T5 construct: Plasmids of the eight single BET bromodomain constructs Brd2(1), Brd2(2), Brd3(1), Brd3(2); His6 (N); made in house; host or cells: E. coli BL21(DE3)
T5 sequence (P25440 344-453 W370H limits assumed): as the sequence (P25440 344-453 limits assumed) above, with W27H counted along it
Procedure: as §1, §2, §3

[6] = target: T6, Brd2(2)*(Trp370Phe) (Homo sapiens, UniProt P25440, W370F); conditions: mutant
T6 construct: Plasmids of the eight single BET bromodomain constructs Brd2(1), Brd2(2), Brd3(1), Brd3(2); His6 (N); made in house; host or cells: E. coli BL21(DE3)
T6 sequence (P25440 344-453 W370F limits assumed): as the sequence (P25440 344-453 limits assumed) above, with W27F counted along it
Procedure: as §1, §2, §3

[7] = target: T7, Brd2(1)*(Met165-Leu) (Homo sapiens, UniProt P25440, M165L); conditions: mutant
T7 construct: Plasmids of the eight single BET bromodomain constructs Brd2(1), Brd2(2), Brd3(1), Brd3(2); His6 (N); made in house; host or cells: E. coli BL21(DE3)
T7 sequence (P25440 74-180 M165L limits assumed): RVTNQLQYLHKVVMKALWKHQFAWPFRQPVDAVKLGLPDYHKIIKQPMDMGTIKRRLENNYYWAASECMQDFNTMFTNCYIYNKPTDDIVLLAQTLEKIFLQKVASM
Procedure: (§4) DSF assays were performed on a LightCycler®480 from Roche or a Mx3005P Real Time PCR machine from Stratagene. Prior to DSF assays, frozen proteins were buffer exchanged using Vivaspin®6 concentrators with a 10 kDa cutoff on a Centrifuge 5430 from Eppendorf at a speed of 6000×g to remove glycerol and to buffer the proteins in 20 mM HEPES pH 7.5 at 25° C. and 100 mM NaCl. SYPRO®Orange from Invitrogen Molecular Probes® was used as a reporter dye to monitor the denaturing process of the proteins. Samples were assayed on a 96-well plate with final protein concentrations of 2 μM for the LightCycler®480 and 6 μM for Mx3005P. Compounds were added at a final concentration of 10 μM for the LightCycler®480 and 30 μM for Mx3005P, while the tetra acetylated histone peptide was added to a final concentration of 100 μM and 300 μM respectively. […] The temperature was raised with a step of 0.6° C. per minute from 37° C. to 95° C. with the LightCycler®480 collecting 39 measurements per ° C., and 1° C. per minute from 25° C. to 95° C. with Mx3005P, collecting fluorescence readings at the end of each interval. Each sample was run in triplicates.
as §2, §3

[8] = target: T8, Brd2(2)*(Met438-Ala) (Homo sapiens, UniProt P25440, M438A); conditions: mutant
T8 construct: Plasmids of the eight single BET bromodomain constructs Brd2(1), Brd2(2), Brd3(1), Brd3(2); His6 (N); made in house; host or cells: E. coli BL21(DE3)
T8 sequence (P25440 344-453 M438A limits assumed): as the sequence (P25440 344-453 limits assumed) above, with M95A counted along it
Procedure: as §4, §2, §3

[9] = target: T9, Brd2(2)*(Met438-Leu) (Homo sapiens, UniProt P25440, M438L); conditions: mutant
T9 construct: Plasmids of the eight single BET bromodomain constructs Brd2(1), Brd2(2), Brd3(1), Brd3(2); His6 (N); made in house; host or cells: E. coli BL21(DE3)
T9 sequence (P25440 344-453 M438L limits assumed): as the sequence (P25440 344-453 limits assumed) above, with M95L counted along it
Procedure: as §4, §2, §3

[10] = target: Brd2(1)*(Met165Ala) (Homo sapiens, UniProt P25440, M165A); design: Plasmids of the eight single BET bromodomain constructs Brd2(1), Brd2(2), Brd3(1), Brd3(2); His6 (N); made in house; host or cells: E. coli BL21(DE3); conditions: mutant
Chain of Brd2(1)*(Met165Ala) (P25440 74-180 M165A limits assumed): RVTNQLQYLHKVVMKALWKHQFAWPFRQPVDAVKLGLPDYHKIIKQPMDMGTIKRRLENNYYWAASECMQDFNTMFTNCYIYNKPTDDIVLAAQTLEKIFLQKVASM
Procedure: as §4, §2, §3

T1 sequence (P25440 74-180 limits assumed): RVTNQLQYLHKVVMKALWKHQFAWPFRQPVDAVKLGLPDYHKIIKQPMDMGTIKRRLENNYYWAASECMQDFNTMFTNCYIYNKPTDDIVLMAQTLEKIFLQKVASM

Row | Compound | Thermal stabilisation brd2(1) [1] | ΔTm Brd2(1) [1] | Thermal stabilisation brd2(1)W097H [2] | ΔTm Brd2(1)*(Tryp097-His) [2] | Thermal stabilisation brd2(1)W097F [3] | ΔTm Brd2(1)*(Tryp097-Phe) [3] | Thermal stabilisation brd2(2) [4] | ΔTm Brd2(2) [4] | Thermal stabilisation brd2(2)W370H [5] | ΔTm Brd2(2)*(Tryp370-His) [5] | Thermal stabilisation brd2(2)W370F [6] | ΔTm Brd2(2)*(Tryp370-Phe) [6] | ΔTm Brd2(1)*(Met165-Leu) [7] | ΔTm Brd2(2)*(Met165-Ala) [8] | ΔTm Brd2(2)*(Met165-Leu) [9] | ΔTm Brd2(1)*(Met165-Ala) [10]
1 | COC(=O)CC1N=C(c2ccc(Cl)cc2C)c2cc(OC)ccc2-n2c(C)nnc21 (racemic) [Compound 8, (+−)-methyl 2-(6-(4-chloro-2-methylphenyl)-8-methoxy-1-methyl-4H-benzo[f][1,2,4]triazolo[4,3-a][1,4]diazepin-4-yl)acetate] | 6.3 ± 0.1 °C | 6.3 ± 0.1 K | 0.9 ± 0.3 °C | 0.9 ± 0.3 K | 1.4 ± 0.2 °C | 1.4 ± 0.2 K | 6.6 ± 0.2 °C | 6.6 ± 0.2 K | 1.1 ± 0.2 °C | 1.1 ± 0.2 K | 2.8 ± 0.1 °C | 2.8 ± 0.1 K | – | – | – | –
2 | COC(=O)CC1N=C(c2ccc(Cl)c(C)c2)c2cc(OC)ccc2-n2c(C)nnc21 (racemic) [Compound 9, (+−)-methyl 2-(6-(4-chloro-3-methylphenyl)-8-methoxy-1-methyl-4H-benzo[f][1,2,4]triazolo[4,3-a][1,4]diazepin-4-yl)acetate] | 1.5 ± 0.2 °C | 1.5 ± 0.2 K | 0.2 ± 0.2 °C | 0.2 ± 0.2 K | −0.1 ± 0.2 °C | −0.1 ± 0.2 K | 3.2 ± 0.1 °C | 3.2 ± 0.1 K | 1.0 ± 0.3 °C | 1.0 ± 0.3 K | 1.5 ± 0.0 °C | 1.5 ± 0.0 K | – | – | – | –
3 | COC(=O)CC1N=C(c2cc(C)ccc2C)c2cc(OC)ccc2-n2c(C)nnc21 (racemic) [Compound 10, (+−)-methyl 2-(6-(2,5-dimethylphenyl)-8-methoxy-1-methyl-4H-benzo[f][1,2,4]triazolo[4,3-a][1,4]diazepin-4-yl)acetate] | 1.8 ± 0.2 °C | 1.8 ± 0.2 K | −0.4 ± 0.3 °C | −0.4 ± 0.3 K | 0.1 ± 0.2 °C | 0.1 ± 0.2 K | 3.5 ± 0.1 °C | 3.5 ± 0.1 K | −0.1 ± 0.1 °C | −0.1 ± 0.1 K | 0.6 ± 0.1 °C | 0.6 ± 0.1 K | – | – | – | –
4 | COC(=O)CC1N=C(c2cc(Cl)ccc2Cl)c2cc(OC)ccc2-n2c(C)nnc21 (centres unmarked) [Compound 17] | – | 1.2 ± 0.2 K | – | −0.4 ± 0.2 K | – | 0.0 ± 0.2 K | – | 2.5 ± 0.2 K | – | −0.4 ± 0.2 K | – | 0.3 ± 0.0 K | – | – | – | –
5 | Cc1cc(C)c(S(=O)(=O)Nc2ccc3c(c2)CN(C)C(=O)N3)c(C)c1 [Compound 42, 2,4,6-trimethyl-N-(3-methyl-2-oxo-1,2,3,4-tetrahydroquinazolin-6 yl)benzenesulfonamide] | – | 0.7 ± 0.3 K | – | 0.2 ± 0.4 K | – | 0.7 ± 0.2 K | – | 2.7 ± 0.5 K | – | 0.2 ± 0.2 K | – | 1.8 ± 0.2 K | – | – | – | –
6 | CN1Cc2cc(NS(=O)(=O)c3c(Cl)cccc3Cl)ccc2NC1=O [Compound 43, 2,6-dichloro-N-(3-methyl-2-oxo-1,2,3,4-tetrahydroquinazolin-6-yl)benzenesulfonamide] | – | 1.2 ± 0.2 K | – | 0.2 ± 0.2 K | – | 0.2 ± 0.3 K | – | 0.6 ± 0.1 K | – | 0.3 ± 0.1 K | – | 1.8 ± 0.3 K | – | – | – | –
7 | CN1Cc2cc(NS(=O)(=O)c3ccccc3-c3ccccc3)ccc2NC1=O [Compound 44, N-(3-methyl-2-oxo-1,2,3,4-tetrahydroquinazolin-6-yl)-[1,1′-biphenyl]-2-sulfonamide] | – | 2.8 ± 0.4 K | – | 1.3 ± 0.2 K | – | 1.8 ± 0.3 K | – | 2.1 ± 0.4 K | – | 0.5 ± 0.3 K | – | 2.2 ± 0.3 K | – | – | – | –
8 | Cc1cccc(Cl)c1S(=O)(=O)Nc1ccc2c(c1)CN(C)C(=O)N2 [Compound 45, 2-chloro-6-methyl-N-(3-methyl-2-oxo-1,2,3,4-tetrahydroquinazolin-6-yl)benzenesulfonamide] | – | 3.9 ± 0.2 K | – | 0.0 ± 0.3 K | – | – | – | 5.3 ± 0.5 K | – | 0.8 ± 0.1 K | – | 2.3 ± 0.1 K | – | – | – | –
9 | CN1Cc2cc(NS(=O)(=O)c3ccc(C(C)(C)C)cc3)ccc2NC1=O [Compound 46, 4-(tert-butyl)-N-(3-methyl-2-oxo-1,2,3,4-tetrahydroquinazolin-6-yl)benzenesulfonamide] | – | 1.1 ± 0.2 K | – | – | – | – | – | 0.8 ± 0.1 K | – | – | – | – | 0.1 ± 0.1 K | 2.5 ± 0.2 K | 0.3 ± 0.2 K | 5.1 ± 0.2 K
10 | COc1ccc(S(=O)(=O)Nc2ccc3c(c2)CN(C)C(=O)N3)cc1 [Compound 47, 4-methoxy-N-(3-methyl-2-oxo-1,2,3,4-tetrahydroquinazolin-6-yl)benzenesulfonamide] | – | 2.4 ± 0.1 K | – | – | – | – | – | 3.1 ± 0.4 K | – | – | – | – | 0.1 ± 0.3 K | 1.6 ± 0.3 K | 1.3 ± 0.2 K | 0.0 ± 0.3 K
11 | CN1Cc2cc(NS(=O)(=O)c3ccc(-c4ccccc4)cc3)ccc2NC1=O [Compound 48, N-(3-methyl-2-oxo-1,2,3,4-tetrahydroquinazolin-6-yl)-[1,1′-biphenyl]-4-sulfonamide] | – | 0.5 ± 0.2 K | – | – | – | – | – | 0.0 ± 0.2 K | – | – | – | – | 0.0 ± 0.1 K | 0.0 ± 0.1 K | 0.0 ± 0.1 K | 1.5 ± 0.4 K
12 | Cc1cc(C)cc(S(=O)(=O)Nc2ccc3c(c2)CN(C)C(=O)N3)c1 [Compound 49, 3,5-dimethyl-N-(3-methyl-2-oxo-1,2,3,4-tetrahydroquinazolin-6-yl)benzenesulfonamide] | – | 2.6 ± 0.5 K | – | – | – | – | – | 2.8 ± 0.2 K | – | – | – | – | 4.1 ± 0.6 K | 2.5 ± 0.2 K | 4.9 ± 0.3 K | 1.1 ± 0.5 K
13 | COc1cc(C)ccc1S(=O)(=O)Nc1ccc2c(c1)CN(C)C(=O)N2 [Compound 52, 2-methoxy-4-methyl-N-(3-methyl-2-oxo-1,2,3,4-tetrahydroquinazolin-6-yl)benzenesulfonamide] | – | 4.7 ± 0.2 K | – | – | – | – | – | 2.8 ± 0.2 K | – | – | – | – | 3.1 ± 0.2 K | 2.0 ± 0.2 K | 2.4 ± 0.1 K | 1.2 ± 0.2 K
